Active and inactive are the calls of the source.

Broadly, the IC50 is the concentration at which inhibition is half-maximal. What is called CC50 is the concentration giving 50% cytotoxicity. What is called EC50 is the concentration needed to bring the measured effect to its halfway point. As usually defined, the AC50 is the midpoint of the concentration-response curve, whichever way the signal moves.

Sequence of Glucose-6-phosphate 1-dehydrogenase (P11413 whole entry): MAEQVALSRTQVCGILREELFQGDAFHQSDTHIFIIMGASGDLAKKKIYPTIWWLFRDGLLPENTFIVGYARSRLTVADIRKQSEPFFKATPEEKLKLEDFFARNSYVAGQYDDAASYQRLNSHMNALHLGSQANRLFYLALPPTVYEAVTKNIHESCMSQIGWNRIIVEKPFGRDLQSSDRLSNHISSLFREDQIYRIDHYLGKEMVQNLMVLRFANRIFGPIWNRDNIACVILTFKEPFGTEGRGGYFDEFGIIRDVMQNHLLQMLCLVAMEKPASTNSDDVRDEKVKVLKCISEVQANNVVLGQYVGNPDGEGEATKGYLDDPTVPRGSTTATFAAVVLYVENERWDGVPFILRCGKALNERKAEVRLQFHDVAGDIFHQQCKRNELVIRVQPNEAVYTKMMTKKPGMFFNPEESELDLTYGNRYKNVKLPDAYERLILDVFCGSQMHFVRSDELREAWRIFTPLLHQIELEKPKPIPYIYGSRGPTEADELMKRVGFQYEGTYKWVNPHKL

For the first assay, the target named is T1, Mannose-6-phosphate isomerase (Homo sapiens, UniProt P34949).
T1 sequence (P34949 whole entry): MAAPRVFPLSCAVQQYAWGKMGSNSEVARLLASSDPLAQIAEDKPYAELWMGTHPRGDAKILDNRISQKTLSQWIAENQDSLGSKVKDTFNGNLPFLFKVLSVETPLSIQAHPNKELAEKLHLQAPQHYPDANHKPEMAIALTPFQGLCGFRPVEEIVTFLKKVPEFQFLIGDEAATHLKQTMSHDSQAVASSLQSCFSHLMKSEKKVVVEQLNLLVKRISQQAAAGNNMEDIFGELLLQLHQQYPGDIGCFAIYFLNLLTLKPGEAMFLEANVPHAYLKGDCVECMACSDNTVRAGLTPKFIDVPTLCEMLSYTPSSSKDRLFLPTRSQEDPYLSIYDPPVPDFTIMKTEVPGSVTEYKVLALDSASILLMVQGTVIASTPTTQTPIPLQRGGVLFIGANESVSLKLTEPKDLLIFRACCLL
The assay is described as follows: human PMI inhibitors, high substrate, primary screen, biochemical, fluorescence intensity, high mannose 6-phosphate (AID 1220).
Details: not given
As to `COc1ccc(-n2c(=S)[nH]c3sc4c(c3c2=O)CCc2ccccc2-4)cc1`, the IC50 is 25.7 µM (active).
The same measure, in the same setting: the value for `COc1cc(NC(=S)Nc2cccnc2)cc(OC)c1` was > 50 µM (not active); that for `COc1ccc(NC(=O)CSc2nc3c(c(-c4cccs4)c2C#N)CN(C)CC3)cc1OC` was > 50 µM (not active).

The target of a further assay is T2, Carboxy-terminal domain RNA polymerase II polypeptide A small phosphatase 1 (Homo sapiens, UniProt Q9GZU7).
T2 sequence (Q9GZU7 whole entry): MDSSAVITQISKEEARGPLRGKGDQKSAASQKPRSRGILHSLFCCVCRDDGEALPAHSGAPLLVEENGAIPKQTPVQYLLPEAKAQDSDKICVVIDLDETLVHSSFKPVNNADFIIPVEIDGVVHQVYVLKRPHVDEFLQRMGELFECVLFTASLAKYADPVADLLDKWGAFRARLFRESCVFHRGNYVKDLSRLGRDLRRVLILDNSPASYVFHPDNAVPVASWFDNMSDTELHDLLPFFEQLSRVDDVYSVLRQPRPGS
In words: inhibitors of CTDSP1, concentration-response testing, biochemical assay, absorbance-based, actives from ultra-high-throughput screening (AID 540297). It is filed as functional.
Details: not given
Regarding `O=C(Nc1cccc(S(=O)(=O)NC2=NCCCCC2)c1)C1COc2ccccc2O1` (stereo unspecified), the 50% inhibitory concentration (IC50) was 5.75 µM (active).
Consider `C[N+]1(C)CC2([N+](=O)[O-])CC=C(Oc3ccccc3)C([N+](=O)[O-])(C2)C1` (stereo unspecified), for which the concentration for half-maximal inhibition (IC50) was 6.82 µM (active).
On the same count and under the same terms, the value for `CCOC(=O)N1CCC(N2Cc3cccc(C(=O)NCc4ccc5c(c4)OCO5)c3C2=O)CC1` was 15 µM (active); that for `O=C1N=C(Nc2ccc(Cl)cc2)/C(=C/c2ccco2)S1` was 1.86 µM (active).
In the case of `Cc1ccc(NC(=O)COc2ccc(/C=N\NC(=O)c3cccnc3)cc2)cc1C`, the half-inhibitory concentration (IC50) was 10 µM (active).
On the same count and under the same terms, the same measure for `CC(C)(C)C(=O)O/N=C1/C(=O)N(c2ccccc2)c2ccccc21`: 7.51 µM (active).

Test system in a further assay: not listed separately
The assay is described as follows: HEp-2 cell cytotoxicity, dose response, cytotoxicity control for RSV inhibitor project, HTS (AID 2410). It is filed as functional. As to conditions: human respiratory syncytial virus.
Turning to `CC(C)(C)C(=O)O/N=C1/C(=O)N(c2ccccc2)c2ccccc21`, the 50% cytotoxic concentration (CC50) was 26.5 µM (active).

Another assay deals with T3, Zinc finger protein mex-5 (Caenorhabditis elegans, UniProt Q9XUB2).
T3 sequence (Q9XUB2 whole entry): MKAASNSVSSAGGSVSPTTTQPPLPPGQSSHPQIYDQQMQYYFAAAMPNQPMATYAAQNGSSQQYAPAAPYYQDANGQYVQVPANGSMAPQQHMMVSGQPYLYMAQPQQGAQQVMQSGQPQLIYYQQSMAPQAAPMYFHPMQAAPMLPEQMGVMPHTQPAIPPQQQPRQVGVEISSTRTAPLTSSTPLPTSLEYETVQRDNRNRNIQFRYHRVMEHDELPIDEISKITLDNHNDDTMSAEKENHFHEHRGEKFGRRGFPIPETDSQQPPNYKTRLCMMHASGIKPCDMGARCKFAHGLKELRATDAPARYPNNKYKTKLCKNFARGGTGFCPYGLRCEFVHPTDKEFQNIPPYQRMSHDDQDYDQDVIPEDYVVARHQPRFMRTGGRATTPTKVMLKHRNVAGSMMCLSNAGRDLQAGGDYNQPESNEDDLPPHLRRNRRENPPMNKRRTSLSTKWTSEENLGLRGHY
In words: MEX-5/TCR-2 RNA interaction inhibitors, dose response, biochemical, C. elegans, fluorescence polarization (AID 1960).
Details: not given
A general note: In fluorescence polarisation assays a small probe gives low polarisation when free and higher when bound to something large.
In the case of `Cc1cc(C(=O)O)ccc1-n1c(C)cc(C=C2C(=O)c3ccccc3C2=O)c1C`, the EC50 was > 300 µM (not active).

Another assay addresses T4, RNA-binding protein pos-1 (Caenorhabditis elegans, UniProt G5EF15).
T4 sequence (G5EF15 whole entry): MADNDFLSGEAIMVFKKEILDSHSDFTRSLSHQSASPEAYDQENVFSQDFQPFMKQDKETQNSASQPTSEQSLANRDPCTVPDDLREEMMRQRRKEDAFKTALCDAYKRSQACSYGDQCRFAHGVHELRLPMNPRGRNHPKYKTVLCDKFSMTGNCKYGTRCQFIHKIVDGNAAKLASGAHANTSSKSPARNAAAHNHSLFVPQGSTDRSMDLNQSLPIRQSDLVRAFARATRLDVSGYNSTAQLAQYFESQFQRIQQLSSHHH
The assay is described as follows: inhibitors of POS-1/mex-3 RNA binding, dose response, biochemical, fluorescence polarization (AID 1964).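 Note: purified POS-1 fused to maltose binding protein made in E. coli; potency of compounds blocking POS-1 binding to fluorescent RNA.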
Details: not given
In the case of `Cc1cc(C(=O)O)ccc1-n1c(C)cc(C=C2C(=O)c3ccccc3C2=O)c1C`, the EC50 is on record as > 300 µM (not active).

Test system in a further assay: not listed separately
The assay is described as follows: P. falciparum Dd2 growth inhibitors, dose response, SYBR Green, cherry-picked samples (AID 1159567).
Details: not given
It is filed as functional, cell-based.
`CCCC#Cc1ccc2c(c1)[C@@H]1[C@@H](CCN1S(=O)(=O)c1ccccc1C)[C@@H](CO)N2`: the concentration at half-maximal activity (AC50) was 7.51 µM (active).
Turning to `N#Cc1cccc(-c2ccc3c(c2)[C@@H]2[C@@H](CCN2Cc2cncnc2)[C@H](CO)N3)c1`, the AC50 is 6.32 µM (active).
Consider `COc1cccc(CN2C[C@@H]3N[C@H](C2)[C@H]3c2ccc(-c3ccncc3)cc2)c1`, for which the AC50 was 7.31 µM (active).
The same measure, in the same setting: the value for `CCC(=O)N1[C@H](CO)[C@@H](c2ccccc2-c2cccc(C)c2)[C@@H]1C#N` was > 42 µM (inactive); that for `C/C=C/c1ccc([C@@H]2[C@H](CO)N(CC3CC3)C23CN(C(=O)c2ccc4c(c2)OCO4)C3)cc1` was 4.44 µM (active); that for `COc1ccccc1C#Cc1ccc([C@@H]2[C@H](C#N)N(C(=O)C3CCCC3)[C@H]2CO)cc1` was 5.17 µM (active).

Another assay concerns the target Glucose-6-phosphate 1-dehydrogenase (Homo sapiens, UniProt P11413). In words: human G6PD enzyme inhibitors, dose response, selectivity assay for P. falciparum G6PD inhibitor project, biochemical, fluorescence (AID 504792). It is filed as functional.
Details: not given
`Cc1cc(C(=O)O)ccc1-n1c(C)cc(C=C2C(=O)c3ccccc3C2=O)c1C`: the IC50 was > 80 µM (inactive).
As for `O=c1[nH]c2ccc(NCc3ccccc3OCc3ccc(Cl)cc3)cc2[nH]1`, the IC50 is > 80 µM (inactive).
As to `COc1cc(NCCCn2ccc(NC(=O)OCc3ccccc3)nc2=O)cc(OC)c1OC`, the IC50 was > 80 µM (inactive).

Source of the values: ChEMBL document CHEMBL1201862, “PubChem BioAssay data set” (2004).
